Assay: Human HepG2 cell viability assay in 384 well format
Assay type: toxicity, cell-based
Set-up: dose 125 nL, time 70.5 hour; cytotoxicity at 70.5 h: concentration not given beside the values
Conditions: HepG2 cells, read-out: Inhibition

Structure (SMILES) | cytotoxicity at 70.5 h [%]
CSc1ccc(C(CN)N2CCc3sccc3C2)cc1 (stereo not drawn) | 24.3
Clc1ccccc1C1(c2ccnc(-c3ncccn3)n2)CCNCC1 | -12.3
N#Cc1cccc(S(=O)(=O)N2CCCCC2CCN2CCCC2)c1 (stereo not drawn) | -3.74
CC(C)Cc1ncc2c(n1)CN(c1nc3ccccc3cc1CO)C2 | -14.3
CO[C@H]1CC[C@H]2[C@H]1OCCN2C(=O)C1=CCCC1 | 9.7
CN1CC(c2ccccc2)C2(CCN(C(=O)c3cccn3C)CC2)C1=O (stereo not drawn) | 1.54
O=C(N[C@H]1CN2CCC1CC2)c1cc(Cn2cnc3ccccc32)[nH]n1 | -5.02
O=C(CCCN1CCOCC1)N1CCCC(CO)(CC2CC2)C1 (stereo not drawn) | -9.81
Cc1noc(C)c1C(=O)N1C[C@@H]2COC[C@]2(COc2ccccn2)C1 | 10.4
Nc1nccnc1C(=O)NC1CCCN(Cc2c(F)cccc2F)C1 (stereo not drawn) | -16.3
COc1cc(C2(C(=O)N3CCN(CC(C)O)CC3)CC2)ccc1C (stereo not drawn) | 10.5
CN(Cc1ccccn1)C1COC2(CCN(Cc3cccnc3)CC2)C1 (stereo not drawn) | 24.4
CN(C)c1ncccc1CNS(=O)(=O)c1ccccc1F | -27.7
Cc1cc(F)c(S(=O)(=O)Nc2ccn(CCCC#N)n2)cc1F | -16
O=C(CN1CCOC(Cn2cccn2)C1)NCc1ccccn1 (stereo not drawn) | -9.46
Cc1nc2c(c(N3CCC(CN4CCCC4=O)CC3)n1)CCNCC2 | -5.86
CS(=O)(=O)NCCC(=O)NC1(c2ccc(F)cc2)CCCC1 | -6.92
CN(C)C(=O)[C@]12CCCN(CC3CC3)C[C@H]1CN(c1ccccn1)C2 | -8.29
O=C(CC1CC1)N1CCC2(CCCN(c3ncccn3)C2)CC1 | -10.9
CC(=O)NCc1nc(Cc2cccc(Cl)c2)nn1C1CCN(C)CC1 | 6.7

Structure (SMILES) | cytotoxicity at 70.5 h [%]
CC(=O)N[C@@H](CC(C)C)C(=O)N1CCC(n2cc(C(C)(C)N)nn2)CC1 | -2.68
CN(C)c1cc(C(=O)N2CCCCC2)ccn1 | 0.476
CC(C)C(C)NC(=O)c1cccn1Cc1cccnc1 (stereo not drawn) | -0.474
c1ccc(-n2ccc(CN3CCCC3Cn3cncn3)n2)cc1 (stereo not drawn) | -3.62
COc1ccc(CN2CCc3ncnc(C4CC4)c3CC2)cc1 | 1.6
Cc1ccoc1-c1nnc(CNCCn2cccn2)o1 | 31.8
CC1(C)OCC2(CO1)CN(S(=O)(=O)c1ccc(Cl)s1)C2 | -1.76
CC(C)n1cc(N2Cc3nc(N4CCOCC4)ncc3C2=O)cn1 | 15.4
CN(C)CC1(O)CCN(S(=O)(=O)c2ccc(F)c(F)c2)C1 (stereo not drawn) | 32.6
Cc1cc(S(=O)(=O)NCC[S+](C)[O-])c(F)cc1F (stereo not drawn) | -2.05
Cc1noc(C)c1CCC(=O)N1CCCC(n2cccn2)C1 (stereo not drawn) | -0.943
COc1ncccc1NC(=O)NCC1CC1 | -3.58
Cc1ccc(CN2Cc3nnn(C)c3C(COCC3CC3)C2)o1 (stereo not drawn) | -5.52
CCn1c(C)nnc1CN(C)C1CCN(CCS(=O)(=O)CC)C1 (stereo not drawn) | -5.35
CCN(CCC(=O)NC1CC1)Cc1ccc(Cl)s1 | -11.3
O=C1Nc2ccccc2C12CCN(Cc1nccs1)CC2 | -1.05
CCc1nc(CN2CCN(C(=O)C3(C#N)CCCC3)CC2)cs1 | -2.5
CCC(C)NS(=O)(=O)Cc1cccc(NC(=O)C(C)C)c1 (stereo not drawn) | -2.19
Cc1csc(C2(NC(=O)CCNC(=O)C(C)(C)C)CCCC2)n1 | 0.031
O=C(c1ccc(O)cc1)N1C[C@@H]2OCCN(c3ncccn3)[C@@H]2C1 | -10.7

Structure (SMILES) | cytotoxicity at 70.5 h [%]
CCc1cc(=O)n(CC(=O)N2CCCCC2)c(-c2cccc(F)c2)n1 | -9.52
Cc1nnc(SCCC(=O)N(C)Cc2ccc(F)cc2Cl)[nH]1 | -4.47
O=c1c2cnc(N3CCCCC3)nc2ccn1-c1ccccc1 | 19
CC(C)(C)c1nnc(CSc2ccccn2)o1 | -6.49
CN1CCCN(C(=O)NCCNc2cnccn2)CC1 | -3.22
Cc1cnccc1-c1cnn(CCNC(=O)c2ccccn2)c1C1CC1 | 27.5
CS(=O)(=O)c1ccc(C(=O)NCc2nc3cc(F)ccc3[nH]2)cc1 | 0.751
COCCCN1CCCC2(CCN(S(=O)(=O)c3cccnc3)C2)C1=O (stereo not drawn) | 9.1
COc1ccc(C2SCC(=O)Nc3ccsc32)cc1OC (stereo not drawn) | -11.5
COCCCNc1cc(C)nn2cnnc12 | -4.69
COc1cc2ncn(CC(=O)NCCCN(C)C)c(=O)c2cc1OC | -6.49
COc1cccc(Cn2c(C3CCNCC3)cc3cccnc32)c1 | -1.55
Cc1nc(C)n(CC2CCCN(c3ncnc4ccccc34)C2)n1 (stereo not drawn) | -6.84
Cc1cc(C(F)(F)F)nc(CNC(=O)CCC2CCCCN2C)n1 (stereo not drawn) | 0.421
CN1CCN(S(=O)(=O)c2ccc(C(=O)N3CC[C@@H](O)C3)cc2)CC1=O | -5.98
CC(C)c1nccn1C(C)C(=O)NCc1noc(Cc2cccs2)n1 (stereo not drawn) | 21.9
CCN(C(=O)c1ccc2nnc(C3CCN(CCOC)C3)n2c1)C(C)C (stereo not drawn) | -13.6
CCC(C)N1CCc2c(C(=O)N3CCOCC3)n[nH]c2C1 (stereo not drawn) | -3.05

Reference: ChEMBL document CHEMBL3507680, “University of Dundee, Gates Library screen for HepG2 cell viability”
